In US20130040390A1, “CULTURE MEDIUM SUPPLEMENT AND USE THEREOF” (GUANGZHOU INSTITUTES OF BIOMEDICINE AND HEALTH, CHINESE …, priority 2010, published 2013):

Assays:
Assay type in all cases: cell-based, mouse
Oct4-GFP MEFs [1] = assay: iPS efficiency test: MEFs infected with SKO viruses, reprogrammed clones counted / GFP cell ratio by FCM; conditions: for recommended working concentration: from dose-response in Basal3.0, day 10; for effect on the reprogramming efficiency: ingredient left out of iCD1, clones at day 8 after SKO infection; for effect on the iCD1 reprogramming efficiency: added to iCD1: A83-01 0.5 μM, valproic acid 1 mM, 2% fetal bovine serum
Source text: Somatic cell type used in reprogramming is OG2 MEFs of no more than 3 passages. OG2 mice are transgenic mice with green fluorescent protein (GFP) gene linked after the promoter of Oct4 gene specifically expressed by stem cell. At a later stage of the reprogramming, endogenous Oct4 of OG2 MEF is activated, and the green fluorescent protein is concomitantly expressed, so the cells or reprogrammed clones appear green when observed under a fluorescence microscope. The reprogramming efficiencies under different conditions can be compared by a research by directly counting the reprogrammed clones, that is, the green fluorescent clones under a fluorescence microscope, or by analyzing the ratio of the green fluorescent cells through flow cytometry (FCM).
Cell assay and preparation of viruses are as follows. […] 6-18 hrs after the cell seeding, the cells are infected with the viruses carrying a mouse reprogramming factor according to the cell density and state. The infection is carried out in two rounds, 24 hrs after the first round of infection, the second round of infection is carried out, and the virus fluid is replaced by various test media 24 hrs after the second round of infection. The day of replacing the virus fluid is recorded as day 0 (D0), and the GFP fluorescent clones are counted in the original wells or the ratio of the GFP fluorescent cells are analyzed by flow cytometry (FCM) at different times after infection as desired.
The preparation of virus includes transfecting virus packaging cells (PlatE) with reprogramming factor plasmid cloned onto a PMX vector, refreshing the culture media 12-16 hrs after infection, using the culture collected 48 hrs after the transfection as a virus fluid for the first infection, and using the additional culture collected 24 hrs after adding fresh culture as a virus fluid for the second infection. […]

Oct4-GFP MEFs [2] = assay: Growth curves of SKO-infected embryonic fibroblasts in iCD1 lacking single ingredients; conditions: ingredient left out of iCD1, cells counted at D0, day 3, day 6
Source text: In order to determine whether the effects of the above six substances on reprogramming are cell growth dependent or independent, growth curves of the embryonic fibroblasts infected with reprogramming factor SKO and then cultured respectively in 9 culture states including iCD1, iCD1 without vitamin C, iCD1 without bFGF, iCD1 without CHIR99021, iCD1 without lithium chloride, iCD1 without vitamin B12, iCD1 without thiamine, iCD1 without all of the six ingredients, and mES were plotted. 2×10^4 initial Oct4-GFP MEFs were infected with SKO viruses, and then cultured respectively in the above 9 culture media. The cells were digested respectively at the day of infection and medium replacement (day D0) and days 3 and 6 after infection, and the cells per well were counted. The replications n in each group of test are 3, and the error bar represents standard deviation (SD).

Oct4-GFP MEFs [3] = assay: iPS efficiency test: MEFs infected with SKO viruses, reprogrammed clones counted / GFP cell ratio by FCM; conditions: 1×10^4 MEFs, clones at day 10

Molecule	recommended working concentration (Oct4-GFP MEFs [1])	effect on the reprogramming efficiency (Oct4-GFP MEFs [1])	further results
EGF: epidermal growth factor			effect on reprogramming (receptor tyrosine kinase family growth factor) (Oct4-GFP MEFs [1]; added to iCD1 without receptor tyrosine kinase, clones at day 10): can also promote the reprogramming
[Cl-].[Li+] [lithium chloride, Lithium chloride]	5 mmol/mL	have effects on the reprogramming efficiency	
Cc1cccc(-c2nn(C(=S)Nc3ccccc3)cc2-c2ccnc3ccccc23)n1 [A83-01, reference compound]			effect on the iCD1 reprogramming efficiency (Oct4-GFP MEFs [1]; clones at day 10): cannot further improve the iCD1 reprogramming efficiency
insulin: recombinant human insulin (SIGMA Inc.) preferred	50 µg/mL		
Cc1ncc(C[n+]2csc(CCO)c2C)c(N)n1 [thiamine]		have effects on the reprogramming efficiency	recommended working concentration (Oct4-GFP MEFs [1]; anti-oxidants): 9000 µg/mL
N[C@@H](CCC(=O)N[C@@H](CS)C(=O)NCC(=O)O)C(=O)O [reduced glutathione]			recommended working concentration (Oct4-GFP MEFs [1]; anti-oxidants): 1500 µg/mL
O=C(O)CCCC[C@@H]1CCSS1 (racemic) [lipoic acid]	0.2 µg/mL		
vitamin E			recommended working concentration (Oct4-GFP MEFs [1]; anti-oxidants): 1000 µg/mL
CCCC(CCC)C(=O)O [valproic acid (VPA), valproic acid, reference compound]			effect on the iCD1 reprogramming efficiency (Oct4-GFP MEFs [1]; clones at day 10): cannot further improve the iCD1 reprogramming efficiency
vitamin B12	1.4 µg/mL	have effects on the reprogramming efficiency	
vitamin A	0.1 µg/mL		
O=C1O[C@H]([C@@H](O)CO)C(O)=C1O [vitamin C, ascorbic acid]	50 µg/mL	especially remarkable	concentration above which an increase has no obvious improvement effect on the reprogramming efficiency (Oct4-GFP MEFs [1]; in iCD1, 0-100 μg/ml, 2×10^4 MEFs, clones at day 10): higher than 25 μg/ml; effect on cell growth (Oct4-GFP MEFs [2]): no obvious effect on cell growth
CCCCC/C=C\C/C=C\CCCCCCCC(=O)O [linoleic acid]	1 µg/mL		
NCCO [ethanolamine]	1 µg/mL		
Cc1c[nH]c(-c2cnc(NCCNc3ccc(C#N)cn3)nc2-c2ccc(Cl)cc2Cl)n1 [CHIR99021, reference compound]		especially remarkable	optimum effect concentration (Oct4-GFP MEFs [3]; in iCD1, 0-12 μmol/ml): about 3 mM; effect on reprogramming efficiency of Basal3.0 (Oct4-GFP MEFs [1]; added to Basal3.0, clone number and cell ratio as indexes): can significantly improve the reprogramming efficiency; effect of high dose on the reprogramming efficiency (Oct4-GFP MEFs [1]; in iCD1, 0-12 μmol/ml, clones at day 10): inhibition effect on the reprogramming efficiency; effect on cell growth (Oct4-GFP MEFs [2]): different degrees of effects on cell growth
bFGF: basic fibroblast growth factor	0.005 µg/mL	especially remarkable	final concentration above which an increase has no obvious improvement effect on the reprogramming efficiency (Oct4-GFP MEFs [3]; in iCD1, 0-10 ng/ml): higher than 5 ng/ml; period of the reprogramming in which it mainly plays a role (Oct4-GFP MEFs [1]; added to iCD1 at different times from days 0 to 10, clones at day 10, n=6): 0 to 8 days; effect on cell growth (Oct4-GFP MEFs [2]): different degrees of effects on cell growth
